Tested on: C57BL/KsJ-db/db mice
Test: Blood sugar and triglyceride lowering in db/db mice (in vivo test)
Settings: male C57BL/KsJ-db/db mice, 200 mg / kg oral gavage daily for 10 days; for Maximum reduction in RBS level in a 9 days treatment (%): random blood sugar in plasma, glucose oxidase method, relative to vehicle control
Protocol: Male C57BL/KsJ-db/db mice of 6 weeks age procured from the Jackson Laboratory, USA were used in the experiment. The mice were provided with standard pellets made by National Institute of Nutrition, Hyderabad, India and ad libitum water. The mice of 8 to 14 weeks age, having body weight 40 to 55 grams or more were used for testing.
The random blood sugar (RBS) values were measured by withdrawing blood (20 ul) through orbital sinus, using heparinised capillary, centrifuging the blood to obtain plasma and measuring the glucose level in the plasma by the glucose oxidase method using Stangen glucose-kit. The triglyceride levels in plasma were measured by glycerol 3 PO4 oxidase / peroxidase enzyme method using Stangen kit. Four mice in a group having 300 mg / dl or more of the blood sugar level were used for the test.
The test compounds were suspended in 2.0 % gum acacia and administered to test group at a dose of 200 mg / kg, through oral gavage daily for 10 days. The control group received the vehicle (Gum acacia 2 % 10 ml / kg). The random blood sugar levels and triglyceride levels were measured at diffirent time intervals before and after administration of test compounds. Troglitazone, (200 mg / kg daily dose) was used as a standard compound in the protocol.
The ability of reducing blood sugar level was determined as described below. The mean blood sugar values on zero day before administering the control vehicle (ZC) and treated group (TC) and the means of blood sugar values of the vehicle treated control on 3rd, 6th and 9th day and test compound treated group day control (DC) and day treated (DT).
The blood sugar lowering effect of test compound is calculated according to the following formula : Blood sugar lowering effect (%) = 1 -(DT/TC)/(DC/ZC)X 100 [formula]
The blood triglyceride (TG) lowering activity was calculated as percent reduction on the 9th day as compared to the control animal values.

| SMILES | Maximum reduction in RBS level in a 9 days treatment (%) | Triglyceride lowering (%) (plasma triglyceride, percent reduction on the 9th day compared to control animals) |
| --- | --- | --- |
| Cc1c(C)c2c(c(C)c1O)CCC(C)(COc1ccc(CC3SC(=O)NC3=O)cc1)O2 (stereo not drawn) [Troglitazone, reference compound] | 26% |  |
| Cc1c(C)c2c(c(C)c1O)CCC(C)(CN(C)CCOc1ccc(C=C3SC(=O)NC3=O)cc1)O2 (stereo not drawn) [Example 12, 5-[4-[2-[N-(6-Hydroxy-2,5,7,8-tetramethylchroman-2-ylmethyl)-N-methylamino]ethoxy]phenylmethylene]thiazolidine-2,4-dione] | 43% | 70% |

Reference: patent publication EP0801063B1, “Thiazolidinedione derivatives having antidiabetic, hypolipidaemic, antihypertensive properties, process for their preparation and pharmaceutical compositions containing them” (Dr. Reddy's Laboratories Ltd., priority 1996, dated 1997)
